One experiment deals with C57BL/6 mice. Nature of the experiment: Hair cycle synchronized animal model, cyclophosphamide induced alopecia. The experiment is classed as in vivo, mouse. As to conditions: for mice with observable hair regrowth: day 13, 30 μg/kg/day, control 1 of 5; for percentage of the area with hair regrowth: day 13, FIG. 1; for number of mature hair follicles present: day 19, histology, FIG. 2. An excerpt: Adolescent, 6- to 8-week-old female, C57BL/6 mice (Simonson, Gilroy, Calif.) with normal, black fur were purchased and housed in community cages with 12-hour light cycles with mouse chow and water ad libitum. In contrast to the mosaic cycling of human hair follicles, these mice display a unique hair cycle synchronization, which makes them a most productive model for hair research. Only mice in the resting stage of the hair cycle (telogen) are used for these studies. In the truncal skin of mice all melanocytes reside in hair follicles, and pigment production (melanogenesis) occurs exclusively in anagen follicles. Thus, telogen C57BL/6 mice can be recognized reliably by the homogeneously pink color of their back skin.
Predictable and highly synchronized anagen development can only be achieved with anagen induction by depilation, as opposed to spontaneous anagen development. Thus, anagen was induced in the back skin of telogen mice by depilation so that, at the start of pharmacological manipulation, all hair follicles in the depilated back skin area of all mice are in exactly the same stage of anagen development. As soon as anagen VI had been reached, all mice were injected once with a high dose of cyclophosphamide. In all experiments, control and test mice were then compared for signs of hair loss, for skin color changes indicating the effect of test drugs on hair cycling and follicle melanogenesis, and for hair regrowth.
Under ketamine hydrochloride-induced general anesthesia, telogen mice that had gone through several postnatal hair cycles were induced to enter anagen by depilation of all telogen hair shafts. This was done by applying a melted wax/rosin mixture to the back skin and by peeling off this mixture after hardening. By this technique, all depilated telogen hair follicles immediately begin to transform into anagen follicles with their associated melanogenesis.
As soon as early anagen VI had been reached by these induced anagen follicles, ie, on day 9 postdepilation (p.d.), a single intraperitoneal injection of cyclophosphamide was given (150 mg/kg).
Chemotherapy induced alopecia was manipulated pharmacologically by administration of the active agents of the present invention, topically or by subcutaneous injection once daily until necropsy. Pigmentation, hair regrowth, and follicle histology are analyzed as indicated. Particular attention is paid to any retarding or enhancing effects on the degree of alopecia, to the hair regrowth pattern, and to the pigmentation of regrowing hair shafts.
After the cyclophosphamide injection on day 9 p.d, the back skin of test and control mice were examined daily for a period of up to 32 days for signs of alopecia and color conversion from black to pink, indicating the progression of anagen follicles in the hair cycle via catagen to telogen. This color change results from the abrupt termination of melanogenesis in follicular melanocytes very early during catagen development. Visible changes were recorded and photodocumented. Starting 1 week after CYP injection, the skin was examined daily for signs of hair regrowth, skin repigmentation, and the quality of hair shaft pigmentation.
In C57BL/6 mice of this age group, depilation induced anagen follicles spontaneously enter catagen between days 17 and 20 p.d., mostly around day 18. The development of catagen follicles was indicated macroscopically by a change in skin color from black to light gray and occurs in large waves, appearing first in the neck region. then on the flanks, until finally the tail region enters catagen. Within 1 to 2 days after catagen induction, the follicle enters telogen, as indicated by a skin color change from gray to pink. […]

For experiment [1], the system named is patients with newly diagnosed breast cancer receiving doxorubicin and cyclophosphamide. The experiment is described as follows: Phase I/II dose escalation study of AII(1-7) before and after chemotherapy; adverse event alopecia. As to conditions: for incidents of alopecia associated with chemotherapy: breast cancer patients, doxorubicin 60 mg/m2 and cyclophosphamide 600 mg/m2, subcutaneous once daily. The class given is in vivo, human. As for the experimental part:
Dose escalation within an individual patient was not permitted.
Following the rest period, a chemotherapy regimen containing doxorubicin 60 mg/m^2 and cyclophosphamide 600 mg/m^2 was initiated.
An adverse event (AE) was considered any unfavorable or unintended change in structure, function, signs, or symptoms temporally associated with the use of a medicinal product experienced by a person administered a pharmaceutical product, whether or not a causal relationship with the product has been established. During the conduct of this clinical trial, study personnel asked open-ended questions to obtain information about AEs at every visit. Signs and symptoms were graded by the Investigator using the WHO toxicity criteria. For alopecia, no notation was made if there was no hair loss. If there was hair loss, it was graded as mild (1) or pronounced (2). In this trial, the incidents of alopecia associated with chemotherapy were as follows: […]

In experiment [2] the test system is C57BL/Ksj-db/db diabetic mice. Nature of the experiment: Full-thickness excision model, mouse: hair follicle regeneration. The class given is in vivo. As to conditions: day 26, topical in 10% CMC or subcutaneous, not observed in placebo. The protocol:
(§1) Materials: The viscous vehicle was prepared from carboxymethylcellulose (CMC sodium salt, low viscosity, Sigma, St. Louis, Mo., Lot Number 34H0310) consisting of 10% low viscosity CMC in 0.05 M phosphate buffer, pH. 7.2, and sterilized by autoclaving followed by mixing with sterile peptide solutions. For subcutaneous administration, the peptides were dissolved in Lactated Ringers' Solution. […] 9GD (SEQ ID NO:41) was prepared by the Microchemical Core Laboratory at USC.
(§2) Surgical model: During the experimental period, C57BL/Ksj-db/db diabetic mice (Jackson Laboratories, Cold Spring Harbor, Me.) or Sprague Dawley rats were housed one per cage and maintained in a central animal care facility with a 12-hour light/dark cycle. Water and standard rodent laboratory chow were supplied ad libitum. All animals used for this study received humane care as defined by the National Research Council's criteria for humane care. The study protocols were approved by the University of Southern California's Institutional Animal Care and Use Committee before initiation of the studies.
Mouse Model: On day 0, C57BL/Ksj-db/db diabetic mice were anesthetized with intramuscular ketamine/xylazine and backs were swabbed with 70% isopropyl alcohol followed by betadine. Afterwards, a 1.3 cm diameter full thickness skin area was excised on the back of each mouse. […]

The next experiment relates to Sprague Dawley rats. Nature of the experiment: Full-thickness excision model, rat: hair follicle regeneration. The experiment is classed as in vivo. As to conditions: day 21, topical in 10% CMC or subcutaneous, not observed in placebo. As for the experimental part:
as §1, §2
Rat Model: Female Sprague-Dawley rats, 175 to 200 grams, were anesthetized with intramuscular ketamine/rompun. The backs of the rats were shaved with animal clippers, scrubbed with betadine, and washed with 70% alcohol before surgery. […]

Experiment [3] is described as follows: Fragments tested for effectiveness (test not specified).

“Also recorded” adds a separate entry of the source. Where no end group is shown, it is not given here. [ ]: non-standard residue; d: D form. Nle = CCCC[C@H](N)C(=O)O

For the molecule Asp-Arg-Val-Tyr-Ile-His-Pro [AII(1-7)], in the experiment on C57BL/6 mice, the “mice with observable hair regrowth” value is on record as 4 of 5, the “percentage of the area with hair regrowth” value is reported as “significantly increased” and the “number of mature hair follicles present” value is recorded as “increased”. Further, the “incidents of alopecia associated with chemotherapy” value in experiment [1] is given as 46%. Further, in experiment [1] (chemotherapy patients), the “effect on alopecia in chemotherapy patients relative to control” value is “significantly decreased alopecia”. In addition, the “microscopic examination of wound site: new adnexal structures (new hair follicles)” value (shortened to “microscopic examination of wound site”) in experiment [2] is recorded as “formation of new adnexal structures”. Moreover, the “microscopic examination of wound site” value in the experiment with Sprague Dawley rats is “formation of new adnexal structures”.
With “DR(nor)YIHP (DR[Nle]YIHP) [Analogue 9GD]”, in the experiment on C57BL/6 mice, the “mice with observable hair regrowth” value was 5 of 5, the “percentage of the area with hair regrowth” value was “significantly increased” and the “number of mature hair follicles present” value was “increased”. For the same molecule, in experiment [2], the “microscopic examination of wound site” value is listed as “formation of new adnexal structures”. Besides, the “microscopic examination of wound site” value with Sprague Dawley rats was “formation of new adnexal structures”.
In the case of His-Pro-Phe (HPF) [AII(6-8)], in experiment [3], the effectiveness entry is listed as “not to be effective”.
As to Tyr-Ile-His-Pro-Phe (YIHPF) [AII(4-8)], in experiment [3], the effectiveness result is “not to be effective; also recorded: ineffective”.

B1: Filgratim: filgrastim (NEUPOGEN, Amgen, Inc.), comparator arm (protein, chains of the INN, looked up)
chain: MTPLGPASSLPQSFLLKCLEQVRKIQGDGAALQEKLCATYKLCHPEELVLLGHSLGIPWAPLSSCPSQALQLAGCLSQLHSGLFLYQGLLQALEGISPELGPTLDTLQLDVADFATTIWQQMEELGMAPALQPTQGAMPAFASAFQRRAGGVLVASHLQSFLEVSYRVLRHLAQP
For the molecule B1, in experiment [1], the “incidents of alopecia associated with chemotherapy” value turned out to be 40%.

These data come from patent US6747008B1, “Methods for treating and preventing alopecia” (University of Southern California, priority 2000, dated 2004).
